Experimental data reported in publication PMC2746281 (PLoS ONE, 2009).

Columns and labels:
TrkB = TrkB (Homo sapiens, UniProt Q16620); conditions: read-out: Cell-based assay IC50, TrkB; Ba/F3 cells expressing the enzyme; cell proliferation, WST-1
[1] = system: EOL1 cells expressing the FIP1L1-PDGFRα chimeric protein; test: EOL1 cell proliferation; assay type: cell-based; conditions: Homo sapiens, EOL1, read-out: IC50, inhibition of proliferation in EOL1 cells
Description: Figures 5C), a hypereosinophilic tumour cell line expressing the FIP1L1-PDGFRα chimeric protein, which is associated with chronic eosinophilic leukaemia.
Cell growth was assessed by WST-1 colorimetric assay. […] (D) Western blotting analysis of EOL1 tyrosine phosphorylation. MW = molecular weight markers.

[2] = biological target: T1, Epidermal growth factor receptor (Homo sapiens, UniProt P00533); test: Recombinant kinase ELISA assay, EGFR; assay type: biochemical; design: The cDNA encoding the EGF receptor (664–1210); 6xHN (N); made in house; host or cells: baculovirus, Sf9 insect cells; conditions: recombinant human enzyme; ELISA-based assay, poly(Glu,Tyr 4:1) substrate
Description: (§1) Full details for the generation of recombinant human KIT intracellular domain and other protein kinases (including Lyn, platelet derived growth factor receptor β, epidermal growth factor receptor, fibroblast growth factor receptor 1, Src, HCK, PYK, FES, Btk, Bmx, c-Ret, c-Fms, Syk, and c-Met) are provided in the Supplemental Methods (see Supporting Information; Methods S1). Experiments on ABL1, Akt1, protein kinase C-α, insulin-like growth factor receptor 1, and Pim1 were carried out by Proqinase (Germany). All other recombinant protein kinases were performed in-house using an enzyme-linked immunoassay; experimental details are provided in the Supplemental Methods (see Supporting Information; Methods S1).
A 96-well microtitre plate (Immulon 2HB; ThermoLifeScience, Finland) was coated overnight with 0.25 mg/ml poly(Glu,Tyr 4:1), rinsed twice with 250 µl of washing buffer (10 mM phosphate-buffered saline [pH 7.4] and 0.05% Tween 20) and dried for 2 hours at room temperature. […] Reactions were initiated upon introduction of the enzyme and terminated with the addition of one reaction volume (50 μl) of 100 mM EDTA per 5 M urea mix. […] The final reaction product was quantified by spectrophotometry at 450 nm.
Target sequence in this assay (P00533 664-1210): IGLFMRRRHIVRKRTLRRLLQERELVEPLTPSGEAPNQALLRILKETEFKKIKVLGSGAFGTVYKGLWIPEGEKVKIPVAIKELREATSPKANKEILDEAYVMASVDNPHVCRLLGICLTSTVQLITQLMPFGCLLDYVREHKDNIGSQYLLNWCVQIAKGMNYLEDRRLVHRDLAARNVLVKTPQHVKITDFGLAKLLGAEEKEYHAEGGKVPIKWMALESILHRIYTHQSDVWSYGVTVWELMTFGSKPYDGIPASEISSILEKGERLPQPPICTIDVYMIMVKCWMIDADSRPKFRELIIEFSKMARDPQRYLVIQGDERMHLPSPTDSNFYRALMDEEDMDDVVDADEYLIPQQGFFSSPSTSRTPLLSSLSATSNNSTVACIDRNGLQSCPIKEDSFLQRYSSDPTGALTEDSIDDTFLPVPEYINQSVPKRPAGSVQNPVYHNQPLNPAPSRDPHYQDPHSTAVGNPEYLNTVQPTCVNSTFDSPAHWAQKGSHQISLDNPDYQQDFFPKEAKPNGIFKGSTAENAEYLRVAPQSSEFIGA

Fes = biological target: T2, Fes (Homo sapiens, UniProt P07332); test: Recombinant kinase ELISA assay, Fes; assay type: biochemical; conditions: recombinant human enzyme; ELISA-based assay, poly(Glu,Tyr 4:1) substrate
T2 construct: Fes (2-822; BC035357); 6xHN (N); made in house; host or cells: baculovirus, Sf9 insect cells
Description: as §1
(§2) The sequences encoding PDGF receptor β (residues 554–1106; GenBank accession no. BC032224), Lyn B (2–583; accession no. BC059394), fibroblast growth factor receptor 1 (572–959; accession no. BC018128), Src (2–536; accession no. BC011566), Btk (2–659; accession no. BC109079), Bmx (2–675; accession no. BC016652), c-Ret (713–1114; accession no. BC004257), c-Fms (538–972; BC047531), Syk (2–612; BC011399), Hck (2-526; accession no. BC014435), Fes (2-822; accession no. BC035357), PYK2 (2-1006; accession no. BC042599) and c-Met (949–1398; accession no. lifeseq3489592) were amplified by PCR from IMAGE cDNA clones purchased from Openbiosystems. […]

[3] = system: mastocytoma cell lines carrying KIT juxtamembrane mutants; test: Proliferation of mastocytoma cell lines carrying KIT juxtamembrane mutants (summary); assay type: cell-based; conditions: summary over cell lines
Hck = biological target: T3, Hck (Homo sapiens, UniProt P08631); test: Recombinant kinase ELISA assay, Hck; assay type: biochemical; conditions: recombinant human enzyme; ELISA-based assay, poly(Glu,Tyr 4:1) substrate
T3 construct: Hck (2-526; BC014435); 6xHN (N); made in house; host or cells: baculovirus, Sf9 insect cells
Description: as §1, §2

[4] = biological target: T1, Epidermal growth factor receptor; test: Ba/F3 cell proliferation (WST-1), EGFR; conditions: Ba/F3 cells expressing the enzyme, read-out: Cell-based assay IC50, Epidermal growth factor receptor
Target sequence in this assay (P00533 25-1210): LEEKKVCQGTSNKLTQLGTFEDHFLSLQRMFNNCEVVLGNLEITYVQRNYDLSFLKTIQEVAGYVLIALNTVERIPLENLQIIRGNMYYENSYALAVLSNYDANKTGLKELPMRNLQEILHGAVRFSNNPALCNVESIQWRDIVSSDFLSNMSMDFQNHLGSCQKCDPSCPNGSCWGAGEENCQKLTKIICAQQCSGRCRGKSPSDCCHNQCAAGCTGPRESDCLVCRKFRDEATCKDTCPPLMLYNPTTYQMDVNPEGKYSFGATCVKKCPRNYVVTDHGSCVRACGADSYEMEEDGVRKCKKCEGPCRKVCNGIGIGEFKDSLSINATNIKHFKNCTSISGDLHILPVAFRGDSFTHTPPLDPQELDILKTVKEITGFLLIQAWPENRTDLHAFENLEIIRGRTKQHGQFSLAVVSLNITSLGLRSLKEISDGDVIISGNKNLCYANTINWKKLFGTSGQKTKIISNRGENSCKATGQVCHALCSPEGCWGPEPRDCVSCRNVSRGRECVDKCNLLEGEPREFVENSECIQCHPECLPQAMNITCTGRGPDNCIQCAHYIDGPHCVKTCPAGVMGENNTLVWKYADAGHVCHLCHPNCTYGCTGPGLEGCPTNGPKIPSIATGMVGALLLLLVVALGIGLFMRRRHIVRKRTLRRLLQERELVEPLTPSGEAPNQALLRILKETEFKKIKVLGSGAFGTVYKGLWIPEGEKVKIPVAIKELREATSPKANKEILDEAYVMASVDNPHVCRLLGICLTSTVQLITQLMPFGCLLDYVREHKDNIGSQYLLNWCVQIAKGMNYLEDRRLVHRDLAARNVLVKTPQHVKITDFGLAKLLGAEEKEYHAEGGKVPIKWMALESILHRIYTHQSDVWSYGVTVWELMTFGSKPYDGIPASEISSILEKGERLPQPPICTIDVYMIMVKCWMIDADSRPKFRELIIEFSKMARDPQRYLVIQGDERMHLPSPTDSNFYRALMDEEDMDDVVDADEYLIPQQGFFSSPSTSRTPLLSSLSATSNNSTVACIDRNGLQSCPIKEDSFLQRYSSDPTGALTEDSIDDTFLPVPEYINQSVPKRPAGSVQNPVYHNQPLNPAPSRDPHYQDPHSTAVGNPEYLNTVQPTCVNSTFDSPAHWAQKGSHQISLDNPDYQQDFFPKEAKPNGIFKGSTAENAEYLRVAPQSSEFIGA

[5] = system: Δ27-expressing Ba/F3 cells; test: Ba/F3 Δ27 tumour model in nude mice; assay type: in vivo; conditions: for average tumour volume increase: days 14 to 25, tumours 40 mm^3, vehicle 1200%; for animals with no detectable tumours at day 25: n = 8 per group
Description: Nude mice were gamma-irradiated and implanted after 24 hours with Δ27-expressing Ba/F3 cells by subcutaneous injection.
placebo (vehicle control); or untreated (n = 8 per group). […]
Female MBRI Nu/Nu mice (7 weeks old) (Janvier, France) were housed under specific pathogen-free conditions at 20±1°C with a 12 hours light/12 hours dark cycle and ad libitum access to food and filtered water. The mice were allowed to acclimatise to the study conditions for 10 to 20 days prior to experiments. All animal experiments were performed according to Centre national de la recherche scientifique (CNRS) ethical guidelines of animal experimentation. […] The cells were centrifuged and resuspended at 5×10^6 or 7.5×10^6 cells/ml in phosphate-buffered saline. Mice were treated with 5 Gy of gamma radiation and after 24 hours they were injected in the right flank with 1.5×10^6 Δ27 Ba/F3 cells. […] For all animals, body weight was measured on the day of injection and every 5 days thereafter, with the tumour's size measured via callipers every 5 days during the treatment period for estimation of tumour volume. During the predose period and for 2 weeks post-treatment, the animals were checked for mortality or signs of morbidity once a day, increasing to twice a day checks during the treatment period.
Survival in the in vivo mouse studies was assessed by Kaplan-Meier analysis using GraphPad Prism (GraphPad Software, Inc. USA) with comparison of survival curves performed by the logrank Mantel-Cox test. The appropriate Wilcoxon or Kruskall-Wallis tests were used for group comparison of tumour volumes and BMMC migration.

T3 sequence (P08631 23-526 limits assumed): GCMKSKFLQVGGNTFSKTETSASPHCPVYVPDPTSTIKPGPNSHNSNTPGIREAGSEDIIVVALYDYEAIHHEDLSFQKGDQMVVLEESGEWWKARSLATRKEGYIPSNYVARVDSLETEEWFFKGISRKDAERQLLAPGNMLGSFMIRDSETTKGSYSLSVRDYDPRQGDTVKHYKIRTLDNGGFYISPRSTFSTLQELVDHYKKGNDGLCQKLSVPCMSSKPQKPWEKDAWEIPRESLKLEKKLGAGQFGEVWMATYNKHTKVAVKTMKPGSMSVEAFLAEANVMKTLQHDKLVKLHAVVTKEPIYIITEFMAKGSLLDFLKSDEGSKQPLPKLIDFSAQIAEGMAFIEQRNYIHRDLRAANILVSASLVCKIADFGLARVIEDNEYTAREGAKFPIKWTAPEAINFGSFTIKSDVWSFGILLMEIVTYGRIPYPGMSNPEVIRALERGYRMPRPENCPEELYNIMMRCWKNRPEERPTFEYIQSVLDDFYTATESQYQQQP
Sequence of TrkB (Q16620 32-822, species assumed): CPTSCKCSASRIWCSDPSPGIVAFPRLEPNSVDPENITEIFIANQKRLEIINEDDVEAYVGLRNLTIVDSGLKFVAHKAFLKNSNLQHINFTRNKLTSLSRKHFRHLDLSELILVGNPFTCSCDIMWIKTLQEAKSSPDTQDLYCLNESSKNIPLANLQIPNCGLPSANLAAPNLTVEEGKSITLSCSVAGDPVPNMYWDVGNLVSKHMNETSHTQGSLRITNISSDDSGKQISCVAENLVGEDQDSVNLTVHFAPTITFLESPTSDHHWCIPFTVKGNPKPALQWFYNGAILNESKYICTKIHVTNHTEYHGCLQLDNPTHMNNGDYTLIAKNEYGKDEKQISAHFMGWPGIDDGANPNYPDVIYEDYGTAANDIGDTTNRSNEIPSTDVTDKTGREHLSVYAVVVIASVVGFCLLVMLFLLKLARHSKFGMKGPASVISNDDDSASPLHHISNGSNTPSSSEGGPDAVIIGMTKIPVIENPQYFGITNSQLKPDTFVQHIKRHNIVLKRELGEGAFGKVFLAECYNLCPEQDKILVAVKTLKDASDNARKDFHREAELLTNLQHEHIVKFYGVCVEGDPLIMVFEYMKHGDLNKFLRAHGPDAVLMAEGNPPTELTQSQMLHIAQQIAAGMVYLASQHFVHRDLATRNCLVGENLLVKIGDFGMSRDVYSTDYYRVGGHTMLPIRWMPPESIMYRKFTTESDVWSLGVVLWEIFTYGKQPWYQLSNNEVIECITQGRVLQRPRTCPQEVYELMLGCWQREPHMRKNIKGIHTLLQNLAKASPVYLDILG
T2 sequence (P07332 2-822): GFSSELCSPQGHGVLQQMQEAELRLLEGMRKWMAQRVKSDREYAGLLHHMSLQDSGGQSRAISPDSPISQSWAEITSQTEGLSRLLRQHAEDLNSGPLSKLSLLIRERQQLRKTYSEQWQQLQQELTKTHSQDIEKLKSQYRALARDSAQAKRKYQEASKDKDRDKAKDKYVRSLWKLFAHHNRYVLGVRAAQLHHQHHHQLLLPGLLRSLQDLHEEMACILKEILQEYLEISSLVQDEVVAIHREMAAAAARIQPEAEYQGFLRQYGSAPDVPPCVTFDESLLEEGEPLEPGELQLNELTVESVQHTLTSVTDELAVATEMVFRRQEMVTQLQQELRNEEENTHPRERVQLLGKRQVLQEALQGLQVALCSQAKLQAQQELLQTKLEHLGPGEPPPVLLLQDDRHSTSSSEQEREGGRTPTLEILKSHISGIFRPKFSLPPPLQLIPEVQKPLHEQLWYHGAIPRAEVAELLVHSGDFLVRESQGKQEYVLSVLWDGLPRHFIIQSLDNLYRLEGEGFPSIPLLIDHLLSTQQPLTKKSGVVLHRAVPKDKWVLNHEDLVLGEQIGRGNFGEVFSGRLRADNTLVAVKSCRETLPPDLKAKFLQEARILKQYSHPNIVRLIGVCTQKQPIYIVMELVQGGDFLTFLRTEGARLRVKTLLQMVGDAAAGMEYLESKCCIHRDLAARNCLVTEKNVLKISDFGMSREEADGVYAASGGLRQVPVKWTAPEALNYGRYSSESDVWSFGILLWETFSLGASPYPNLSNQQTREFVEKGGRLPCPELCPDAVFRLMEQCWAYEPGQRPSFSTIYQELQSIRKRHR

**Q.** Which results are given for `CS(=O)(=O)O.CS(=O)(=O)O.Cc1ccc(NC(=O)c2ccc(CN3CCN(C)CC3)cc2)cc1Nc1nc(-c2cccnc2)cs1` [masitinib, 4-(4-methylpiperazin-1-ylmethyl)-N-[4-methyl-3-(4-pyridin-3ylthiazol-2-ylamino)phenyl]benzamide-mesylate methane sulfonic acid salt]?
**A.** IC50 (TrkB): 7 ± 1.9 µM; IC50 [1]: 0.0002 ± 0.0001 µM; IC50 [2]: > 10 µM; IC50 (Fes): > 10 µM; IC50 [3]: 0.01 to 0.03 µM; IC50 (Hck): 2 ± 0.2 µM; IC50 [4]: 7 ± 0.8 µM; effect on total body weight ([5]; 30 mg/kg intraperitoneal twice daily for 25 days): did not affect the total body weight; tumour growth ([5]; 30 mg/kg intraperitoneal twice daily for 25 days, tumours 400 mm^3): Tumour growth stabilised; median survival time ([5]; 30 mg/kg intraperitoneal twice daily for 25 days, tumours 400 mm^3, control 30.5 days): 42 days; average tumour volume, placebo group compared to masitinib treated group ([5]; 30 mg/kg intraperitoneal twice daily, after 10 days of treatment (day 29)): ~4 fold; average tumour volume increase ([5]; 30 mg/kg oral twice daily): 355%; animals with no detectable tumours at day 25 ([5]; 30 mg/kg oral twice daily): one; average tumour volume increase ([5]; 45 mg/kg oral twice daily): 154%; animals with no detectable tumours at day 25 ([5]; 45 mg/kg oral twice daily): two; tumour growth ([5]; 100 mg/kg oral twice daily, 5 days, tumours 500 mm^3 (data not shown)): tumour growth was blocked; effect on body weight gain ([5]; 10, 30, or 45 mg/kg oral twice daily): did not affect body weight gain
